Measurements from ChEMBL document CHEMBL1201862, “PubChem BioAssay data set” (2004).
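Dose response: 5 concentrations. Exposure: 48 h. Format: 96-well plates. Endpoint: linear interpolation; highest concentration if not reached. The concentration for 50% growth inhibition is given as GI50.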 Activity calls are given as the source filed them. Rule as the data show it: active = GI50 up to about 1.1 µM and inactive = higher.

Experiments:
Assay in all cases: NCI anticancer screen, dose series, 48 h
[1] = tested on: HOP-18
[2] = tested on: IGROV-1
[3] = tested on: HCT-15
[4] = tested on: NCI-H226
[5] = tested on: SW-620
[6] = tested on: COLO 205
[7] = tested on: OVCAR-8
[8] = tested on: DLD-1
[9] = tested on: KM12
[10] = tested on: HOP-92
[11] = tested on: SN12C
[12] = tested on: CAKI-1
[13] = tested on: SK-MEL-5
[14] = tested on: 786-0
[15] = tested on: OVCAR-3
[16] = tested on: LXFL 529
[17] = tested on: HL-60
[18] = tested on: HOP-62

| Compound | GI50 [1] | GI50 [2] | GI50 [3] [µM] | GI50 [4] | GI50 [5] | GI50 [6] | GI50 [7] | GI50 [8] | GI50 [9] | GI50 [10] | GI50 [11] | GI50 [12] | GI50 [13] | GI50 [14] | GI50 [15] | GI50 [16] | GI50 [17] | GI50 [18] |
| --- | --- | --- | --- | --- | --- | --- | --- | --- | --- | --- | --- | --- | --- | --- | --- | --- | --- | --- |
| Cc1ccccc1N(CC(=O)O)S(=O)(=O)c1ccccc1 | > 100 µM (inactive) | > 100 µM (inactive) | > 100 | > 100 µM (inactive) | > 100 µM (inactive) | > 100 µM (inactive) | > 100 µM (inactive) | > 100 µM (inactive) | > 100 µM (inactive) | > 100 µM (inactive) | > 100 µM (inactive) | > 100 µM (inactive) | > 100 µM (inactive) | > 100 µM (inactive) | > 100 µM (inactive) | > 100 µM (inactive) | > 100 µM (inactive) | – |
| COc1cc(Cl)c2c3c(c(C(C)=O)oc13)CCC2 | > 100 µM (inactive) | > 100 µM (inactive) | > 100 | – | > 100 µM (inactive) | > 100 µM (inactive) | > 100 µM (inactive) | > 100 µM (inactive) | – | 92.9 µM (inactive) | > 100 µM (inactive) | > 100 µM (inactive) | > 100 µM (inactive) | > 100 µM (inactive) | > 100 µM (inactive) | > 100 µM (inactive) | > 100 µM (inactive) | > 100 µM (inactive) |
| COc1cc(/C=C\c2ccc(Br)cc2)cc(OC)c1OC | 0.000721 µM (active) | 0.0124 µM (active) | 0.00333 | 0.0014 µM (active) | 0.000382 µM (active) | 0.00486 µM (active) | 0.00161 µM (active) | 0.00324 µM (active) | 0.000612 µM (active) | 0.01 µM (active) | 0.00168 µM (active) | 0.01 µM (active) | 0.000527 µM (active) | 0.00043 µM (active) | 0.000341 µM (active) | 0.000891 µM (active) | 0.000318 µM (active) | 0.01 µM (active) |
| COc1ccc(C2SCC(=O)N2NC(=O)c2ccncc2)cc1F (centres undefined) | 7.29 µM (inactive) | – | > 100 | > 100 µM (inactive) | > 100 µM (inactive) | > 100 µM (inactive) | – | > 100 µM (inactive) | > 100 µM (inactive) | > 100 µM (inactive) | > 100 µM (inactive) | > 100 µM (inactive) | > 100 µM (inactive) | – | – | > 100 µM (inactive) | > 100 µM (inactive) | > 100 µM (inactive) |
| COC(=O)Cc1nn2c(nc1=O)sc1ccc3ccccc3c12 | > 100 µM (inactive) | > 100 µM (inactive) | > 100 | > 100 µM (inactive) | > 100 µM (inactive) | > 100 µM (inactive) | 43.2 µM (inactive) | > 100 µM (inactive) | > 100 µM (inactive) | 63.8 µM (inactive) | > 100 µM (inactive) | 50.2 µM (inactive) | > 100 µM (inactive) | 44.3 µM (inactive) | > 100 µM (inactive) | > 100 µM (inactive) | > 100 µM (inactive) | 72.1 µM (inactive) |
| C[C@]12Cc3cn[nH]c3C(=O)C1CC[C@@H]1C2CC[C@@]2(C)C1CC[C@]2(C)O (some centres undefined) | > 100 µM (inactive) | > 100 µM (inactive) | > 100 | > 100 µM (inactive) | > 100 µM (inactive) | > 100 µM (inactive) | > 100 µM (inactive) | > 100 µM (inactive) | > 100 µM (inactive) | > 100 µM (inactive) | > 100 µM (inactive) | > 100 µM (inactive) | > 100 µM (inactive) | 89.5 µM (inactive) | > 100 µM (inactive) | > 100 µM (inactive) | > 100 µM (inactive) | > 100 µM (inactive) |
| O=c1[nH]c(Br)nc2c(N3CCCCC3)c[nH]c12 | > 100 µM (inactive) | > 100 µM (inactive) | > 100 | > 100 µM (inactive) | > 100 µM (inactive) | > 100 µM (inactive) | > 100 µM (inactive) | > 100 µM (inactive) | > 100 µM (inactive) | > 100 µM (inactive) | > 100 µM (inactive) | > 100 µM (inactive) | > 100 µM (inactive) | > 100 µM (inactive) | > 100 µM (inactive) | > 100 µM (inactive) | > 100 µM (inactive) | > 100 µM (inactive) |
| Cc1ccc([Se][Se]c2ccc(C)cc2)cc1 | 6.46 µM (inactive) | 38.3 µM (inactive) | 9.35 | 24.5 µM (inactive) | 7.62 µM (inactive) | > 100 µM (inactive) | 45.3 µM (inactive) | 17.7 µM (inactive) | 50.2 µM (inactive) | 6.87 µM (inactive) | 26.7 µM (inactive) | 47.4 µM (inactive) | 16 µM (inactive) | 18.6 µM (inactive) | 31.6 µM (inactive) | 4.76 µM (inactive) | 4.02 µM (inactive) | > 100 µM (inactive) |
| COCCCNC(=O)C1C(=O)C(=O)N(CCCOC)C1=O (centres undefined) | > 100 µM (inactive) | > 100 µM (inactive) | > 100 | > 100 µM (inactive) | > 100 µM (inactive) | > 100 µM (inactive) | > 100 µM (inactive) | > 100 µM (inactive) | – | > 100 µM (inactive) | > 100 µM (inactive) | > 100 µM (inactive) | > 100 µM (inactive) | > 100 µM (inactive) | > 100 µM (inactive) | > 100 µM (inactive) | > 100 µM (inactive) | > 100 µM (inactive) |
| N=C(N)N/N=C(/CC1OC(=O)c2ccccc21)c1ccc2ccccc2c1 (centres undefined) | 18.5 µM (inactive) | 22.1 µM (inactive) | 15.3 | 13.7 µM (inactive) | – | 19.6 µM (inactive) | 15.8 µM (inactive) | 14 µM (inactive) | 12.9 µM (inactive) | 22 µM (inactive) | 19.6 µM (inactive) | > 100 µM (inactive) | 21.4 µM (inactive) | 17.1 µM (inactive) | 17.5 µM (inactive) | 14.6 µM (inactive) | 17.8 µM (inactive) | 18.5 µM (inactive) |
| COc1ccc(/C=c2\sc3nnc(CCC(=O)Nc4cccc(C(F)(F)F)c4)n3c2=O)cc1 | 50.4 µM (inactive) | > 100 µM (inactive) | > 100 | > 100 µM (inactive) | > 100 µM (inactive) | > 100 µM (inactive) | 83.4 µM (inactive) | > 100 µM (inactive) | > 75.9 µM (inactive) | > 100 µM (inactive) | > 100 µM (inactive) | > 79.8 µM (inactive) | > 100 µM (inactive) | > 71.8 µM (inactive) | 39.8 µM (inactive) | > 87.1 µM (inactive) | > 47.9 µM (inactive) | > 100 µM (inactive) |
| CCc1cccc(C(C)C)c1NC(=O)CC1Sc2ccccc2NC1=O (centres undefined) | > 100 µM (inactive) | 37.8 µM (inactive) | 47.9 | > 100 µM (inactive) | 13 µM (inactive) | 50.4 µM (inactive) | 78 µM (inactive) | 47.4 µM (inactive) | 54.8 µM (inactive) | 39.5 µM (inactive) | > 100 µM (inactive) | 0.241 µM (active) | 36.5 µM (inactive) | 80 µM (inactive) | 56 µM (inactive) | 43.5 µM (inactive) | 24 µM (inactive) | > 100 µM (inactive) |
| COc1ccc(C2c3cc4c(cc3OC(O)(CO)C2C(=O)O)OCO4)cc1.COc1ccc(C2c3cc4c(cc3OC3(O)COC(=O)C23)OCO4)cc1 (centres undefined) | 50.4 µM (inactive) | 20.4 µM (inactive) | 17.7 | 22.5 µM (inactive) | 18.7 µM (inactive) | 10.3 µM (inactive) | 20.5 µM (inactive) | 21.8 µM (inactive) | 28.2 µM (inactive) | 21 µM (inactive) | 23.7 µM (inactive) | – | 19.8 µM (inactive) | – | 22.4 µM (inactive) | 15.6 µM (inactive) | 17.2 µM (inactive) | 33.7 µM (inactive) |
| O=c1[nH]c2cc(-c3ccccc3)nc-2nn1-c1c(Cl)cc(Cl)cc1Cl | 18.8 µM (inactive) | 38.5 µM (inactive) | 36 | 23.7 µM (inactive) | 33.7 µM (inactive) | 15.1 µM (inactive) | 37.4 µM (inactive) | 37.5 µM (inactive) | 20.5 µM (inactive) | 31.5 µM (inactive) | 28.6 µM (inactive) | 27.5 µM (inactive) | 25.9 µM (inactive) | 30.8 µM (inactive) | 23.2 µM (inactive) | 30.5 µM (inactive) | 20.5 µM (inactive) | 25.5 µM (inactive) |
| COc1ccc2c(c1)[n+]([O-])c(-c1nc3ccccc3s1)c(N)[n+]2[O-] | > 100 µM (inactive) | > 100 µM (inactive) | 89.5 | > 100 µM (inactive) | > 100 µM (inactive) | 36.5 µM (inactive) | > 100 µM (inactive) | 69.2 µM (inactive) | > 100 µM (inactive) | > 100 µM (inactive) | > 100 µM (inactive) | > 100 µM (inactive) | 38.8 µM (inactive) | > 100 µM (inactive) | 78.7 µM (inactive) | 58.1 µM (inactive) | 39.4 µM (inactive) | > 100 µM (inactive) |
